Measurements taken from PubChem BioAssay (NCI).
Several values for one entry are separate records, joined by “and”; a condition that tells them apart may be missing. Identical values can stand only once.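 48-hour exposure; five concentrations; linearly interpolated endpoints. GI50 = concentration required for 50% inhibition of growth. TGI is the concentration that stops growth completely.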

Columns and labels:
Assay in all cases: NCI-60 cell line screen, 48 h
OVCAR-4 ovarian = test system: OVCAR-4 ovarian
RPMI-8226 leukemia = test system: RPMI-8226 leukemia
CAKI-1 renal = test system: CAKI-1 renal
SF-268 CNS = test system: SF-268 CNS
NCI-H226 lung = test system: NCI-H226 lung
SF-539 CNS = test system: SF-539 CNS
COLO 205 colon = test system: COLO 205 colon
A498 renal = test system: A498 renal
NCI-H460 lung = test system: NCI-H460 lung
LOX IMVI melanoma = test system: LOX IMVI melanoma

| Structure (SMILES) | GI50 (OVCAR-4 ovarian) | TGI (OVCAR-4 ovarian) | GI50 (RPMI-8226 leukemia) | TGI (RPMI-8226 leukemia) | GI50 (CAKI-1 renal) | TGI (CAKI-1 renal) | GI50 (SF-268 CNS) | TGI (SF-268 CNS) | GI50 (NCI-H226 lung) | TGI (NCI-H226 lung) | GI50 (SF-539 CNS) | TGI (SF-539 CNS) | GI50 (COLO 205 colon) | TGI (COLO 205 colon) | GI50 (A498 renal) | TGI (A498 renal) | GI50 (NCI-H460 lung) | TGI (NCI-H460 lung) | TGI (LOX IMVI melanoma) | GI50 (LOX IMVI melanoma) |
| --- | --- | --- | --- | --- | --- | --- | --- | --- | --- | --- | --- | --- | --- | --- | --- | --- | --- | --- | --- | --- |
| COc1ccc(CN2C(=O)/C(=C\C(=O)c3ccc(OCCN4CCCC4)cc3)c3ccccc32)cc1 | 2.18 µM | 5.44 µM | 2.54 µM | 6.29 µM | 11.8 µM | 27 µM | 13.2 µM | 42.7 µM | 20.8 µM | 52.9 µM | 1820 nM | 3.75 µM | 2280 nM | 5.52 µM | 18.1 µM | 38.7 µM | 2030 nM | 3.8 µM | – | – |
| NC(CP(=O)(O)O)C(=O)O (stereo not drawn) | – | > 100 µM | – | > 100 µM | – | > 100 µM | – | > 100 µM | – | > 100 µM | – | – | – | > 100 µM | – | > 100 µM | – | > 100 µM | > 100 µM | – |
| O=c1c2ccccc2nc2n1CCc1c-2[nH]c2cc3c(cc12)OCO3 | 1.5 µM | 6.35 µM | – | > 25 µM | – | – | – | > 25 µM | – | – | – | > 25 µM | – | > 25 µM | – | – | 1550 nM | > 25 µM | – | – |
| COC(=O)C(=NNc1ccccc1[N+](=O)[O-])C(=O)OC | – | > 100 µM | – | – | – | > 100 µM | – | > 100 µM | – | > 100 µM | – | > 100 µM | – | > 100 µM | – | > 100 µM | – | > 100 µM | > 100 µM | – |
| Cn1nc(-c2ccccc2)c2c(/C=C/c3ccc(Cl)cc3)onc2c1=O | – | – | – | > 100 µM | – | – | – | > 100 µM | – | – | – | 72.8 µM | – | > 100 µM | – | – | – | > 100 µM | 95.4 µM | – |
| Cc1cc(O[C@@H]2O[C@@H](C)[C@H](O)[C@@H](O)[C@H]2O)c2c3c(c(O[C@@H]4O[C@@H](C)[C@H](O)[C@@H](O)[C@H]4O)cc2c1)C(=O)c1c(O)cccc1C3=O | > 30 µM | > 30 µM | > 30 µM | > 30 µM | – | – | > 30 µM | > 30 µM | > 30 µM | > 30 µM | > 30000 nM | > 30 µM | > 30000 nM | > 30 µM | > 30 µM | > 30 µM | > 30000 nM | > 30 µM | > 30 µM | > 30 µM |
| CCNC(=O)Oc1ccc(/C(=C(\C)c2ccc(Cl)cc2)c2ccc(OCCN(CC)CC)cc2)cc1 | 3.65 µM | 17.3 µM | 2.4 µM | 6 µM | – | – | 5.99 µM | 21 µM | 17.2 µM | 39.5 µM | 1780 nM | 3.44 µM | 1940 nM | 3.94 µM | 14.3 µM | 29.6 µM | 2090 nM | 4.16 µM | 4.02 µM | 1.94 µM |
| CN(C)CCCOc1ccc(/C=C2/CCC/C(=C/c3ccc(OCCCN(C)C)cc3)C2=O)cc1 | – | 7.1 µM | – | 3.43 µM | – | – | – | 4.84 µM | – | – | – | 3.02 µM | – | 3.2 µM | – | 3.65 µM | – | 4.16 µM | 3.29 µM | – |
| COc1ccc(NC(=S)C#N)cc1 | – | – | – | > 100 µM | – | > 100 µM | – | > 100 µM | – | > 100 µM | – | > 100 µM | – | > 100 µM | – | > 100 µM | – | – | > 100 µM | – |
| N.N.N.N.N.N#Cc1nn[n-]n1.[Cl-].[Co+3] | > 100 µM | > 100 µM | > 100 µM | > 100 µM | > 100 µM | > 100 µM | > 100 µM | > 100 µM | – | – | > 100000 nM | > 100 µM | > 100000 nM | > 100 µM | – | – | > 100000 nM | > 100 µM | > 100 µM | > 100 µM |
| CCC1(OC(=O)CNC)C(=O)OCc2c1cc1n(c2=O)Cc2cc3ccccc3nc2-1 (stereo not drawn) | – | 0.493 µM | – | 0.415 µM | – | – | – | 0.709 µM | – | 0.0641 µM | – | < 0.0203 µM | – | 1.54 µM | – | 0.104 µM | – | 0.399 µM | 0.137 µM | – |
| Cc1cc2nc3c(=O)[nH]c(=O)nc-3n(CC(O)C(O)C(O)CO)c2cc1N (stereo not drawn) | – | > 100 µM | – | > 100 µM | – | – | – | – | – | > 100 µM | – | > 100 µM | – | > 100 µM | – | > 100 µM | – | > 100 µM | > 100 µM | – |
| CC12CCCC(C#N)(C1)OC2=O (stereo not drawn) | – | > 100 µM | – | – | – | > 100 µM | – | > 100 µM | – | > 100 µM | – | > 100 µM | – | – | – | > 100 µM | – | > 100 µM | – | – |
| COc1ccc(/C(=C/c2ccc3ccccc3c2)c2nn[nH]n2)cc1OC | 7.78 µM | > 100 µM | 4.02 µM | > 100 µM | 2.24 µM | > 100 µM | 6.55 µM | > 100 µM | > 100 µM | > 100 µM | 2380 nM | 7.94 µM | 2270 nM | 6.56 µM | – | – | 2810 nM | 16.3 µM | > 100 µM | 5.63 µM |
| Clc1ccc(-c2nc3c(-c4ccccc4)nc(-c4ccccc4)cn3c2-c2ccc(Cl)cc2)cc1 | > 100 µM | > 100 µM | > 100 µM | > 100 µM | > 100 µM | > 100 µM | > 100 µM | > 100 µM | – | – | > 100000 nM | > 100 µM | > 100000 nM | > 100 µM | > 100 µM | > 100 µM | > 100000 nM | > 100 µM | > 100 µM | > 100 µM |
| CCOC(=O)C1=C(C)NC(C)=C(C(=O)OCCNC(=O)c2ccc(N=[N+]=[N-])cc2)C1c1ccccc1C(F)(F)F (stereo not drawn) | – | 21.5 µM | – | 18.9 µM | – | 21.5 µM | – | 21.5 µM | – | 21.5 µM | – | > 31.6 µM | – | 11 µM | – | – | – | 21.5 µM | > 31.6 µM | – |
| COC(=O)[C@H](Cc1ccccc1)NNC(=O)c1csc([C@@H](C[C@H](C(C)C)N(C)C(=O)[C@@H](NC(=O)[C@H]2CCCCN2C)C2CC2)OC(C)=O)n1 | – | 25 µM and > 100 µM | – | 25 µM and > 100 µM | – | – | – | 25 µM and > 100 µM | – | 25 µM and > 100 µM | 6.48 nM and 31.5 nM | 0.0564 µM and 0.461 µM | – | – | – | – | – | 25 µM and > 100 µM | 25 µM and > 100 µM | – |
| O=C(O)CCC(=O)Oc1ccc(O)c2c1CCCC2=O | – | > 100 µM | – | > 100 µM | – | – | – | > 100 µM | – | > 100 µM | – | > 100 µM | – | > 100 µM | – | > 100 µM | – | > 100 µM | > 100 µM | – |
| CC(=O)n1nnc2ccc([N+](=O)[O-])cc21 | – | > 100 µM | – | > 100 µM | – | > 100 µM | – | > 100 µM | – | > 100 µM | – | > 100 µM | – | > 100 µM | – | – | – | > 100 µM | > 100 µM | – |
